# Laboratory results as given in publication PMC8333425, “Discovery of a dual Ras and ARF6 inhibitor from a GPCR endocytosis screen” (Nature Communications, 2021).
# Assays:
# Assay in all cases: KINOMEscan kinase binding assay
# [1] = molecular target: T1, 384 kinases from the human genome (Homo sapiens, UniProt Q09013); details: kinase DMPK (Entrez DMPK)
# T1 construct: purchased Eurofin/DiscoverX
# Outline: (§1)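 A panel of 384 human kinases was profiled by KINOMEscan binding in the presence of 10 µM compound. Kinase–ligand binding was given as percent of DMSO control, averaged from duplicates in a single run, with an S(10) selectivity score.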
# [2] = molecular target: T2, 384 kinases from the human genome (Homo sapiens, UniProt P04626); details: kinase ERBB2 (Entrez ERBB2)
# T2 construct: purchased Eurofin/DiscoverX
# Outline: as §1
# [3] = molecular target: T3, 384 kinases from the human genome (Homo sapiens, UniProt P49759); details: kinase CLK1 (Entrez CLK1)
# T3 construct: purchased Eurofin/DiscoverX
# Outline: as §1
# [4] = molecular target: T4, 384 kinases from the human genome (Homo sapiens, UniProt Q9H2X6); details: kinase HIPK2 (Entrez HIPK2)
# T4 construct: purchased Eurofin/DiscoverX
# Outline: as §1
# [5] = molecular target: T5, 384 kinases from the human genome (Homo sapiens, UniProt O43283); details: kinase LZK (Entrez MAP3K13)
# T5 construct: purchased Eurofin/DiscoverX
# Outline: as §1
# [6] = molecular target: T6, 384 kinases from the human genome (Homo sapiens, UniProt P42681); details: kinase TXK (Entrez TXK)
# T6 construct: purchased Eurofin/DiscoverX
# Outline: as §1
# [7] = molecular target: T7, 384 kinases from the human genome (Homo sapiens, UniProt Q16832); details: kinase DDR2 (Entrez DDR2)
# T7 construct: purchased Eurofin/DiscoverX
# Outline: as §1
# [8] = molecular target: T8, 384 kinases from the human genome (Homo sapiens, UniProt Q00532); details: kinase CDKL1 (Entrez CDKL1)
# T8 construct: purchased Eurofin/DiscoverX
# Outline: as §1
# [9] = molecular target: T9, 384 kinases from the human genome (Homo sapiens, UniProt Q96RR4); details: kinase CAMKK2 (Entrez CAMKK2)
# T9 construct: purchased Eurofin/DiscoverX
# Outline: as §1
# [10] = molecular target: T10, 384 kinases from the human genome (Homo sapiens, UniProt Q9HBY8); details: kinase SGK2 (Entrez SGK2)
# T10 construct: purchased Eurofin/DiscoverX
# Outline: as §1
# [11] = molecular target: T11, 384 kinases from the human genome (Homo sapiens, UniProt O95747); details: kinase OSR1 (Entrez OXSR1)
# T11 construct: purchased Eurofin/DiscoverX
# Outline: as §1
# [12] = molecular target: T12, 384 kinases from the human genome (Homo sapiens, UniProt Q05655); details: kinase PRKCD (Entrez PRKCD)
# T12 construct: purchased Eurofin/DiscoverX
# Outline: as §1
# [13] = molecular target: T13, 384 kinases from the human genome (Homo sapiens, UniProt P42680); details: kinase TEC (Entrez TEC)
# T13 construct: purchased Eurofin/DiscoverX
# Outline: as §1
# [14] = molecular target: T14, 384 kinases from the human genome (Homo sapiens, UniProt O14965); details: kinase AURKA (Entrez AURKA)
# T14 construct: purchased Eurofin/DiscoverX
# Outline: as §1
# [15] = molecular target: T15, 384 kinases from the human genome (Homo sapiens, UniProt Q96SB4); details: kinase SRPK1 (Entrez SRPK1)
# T15 construct: purchased Eurofin/DiscoverX
# Outline: as §1
# [16] = molecular target: T16, 384 kinases from the human genome (Homo sapiens, UniProt P51955); details: kinase NEK2 (Entrez NEK2)
# T16 construct: purchased Eurofin/DiscoverX
# Outline: as §1
# [17] = molecular target: T17, 384 kinases from the human genome (Homo sapiens, UniProt Q96Q40); details: kinase PFTAIRE2 (Entrez CDK15)
# T17 construct: purchased Eurofin/DiscoverX
# Outline: as §1
# T10 sequence (Q9HBY8 whole entry): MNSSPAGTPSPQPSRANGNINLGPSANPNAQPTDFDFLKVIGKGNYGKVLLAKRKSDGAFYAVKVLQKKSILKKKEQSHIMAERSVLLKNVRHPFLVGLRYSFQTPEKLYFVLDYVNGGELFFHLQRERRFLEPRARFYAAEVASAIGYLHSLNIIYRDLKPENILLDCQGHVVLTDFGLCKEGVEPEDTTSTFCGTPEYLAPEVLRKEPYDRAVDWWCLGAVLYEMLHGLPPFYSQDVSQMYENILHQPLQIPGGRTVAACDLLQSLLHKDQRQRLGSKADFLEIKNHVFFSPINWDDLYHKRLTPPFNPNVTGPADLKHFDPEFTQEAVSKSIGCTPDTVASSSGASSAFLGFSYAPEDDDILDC
# T7 sequence (Q16832 22-855): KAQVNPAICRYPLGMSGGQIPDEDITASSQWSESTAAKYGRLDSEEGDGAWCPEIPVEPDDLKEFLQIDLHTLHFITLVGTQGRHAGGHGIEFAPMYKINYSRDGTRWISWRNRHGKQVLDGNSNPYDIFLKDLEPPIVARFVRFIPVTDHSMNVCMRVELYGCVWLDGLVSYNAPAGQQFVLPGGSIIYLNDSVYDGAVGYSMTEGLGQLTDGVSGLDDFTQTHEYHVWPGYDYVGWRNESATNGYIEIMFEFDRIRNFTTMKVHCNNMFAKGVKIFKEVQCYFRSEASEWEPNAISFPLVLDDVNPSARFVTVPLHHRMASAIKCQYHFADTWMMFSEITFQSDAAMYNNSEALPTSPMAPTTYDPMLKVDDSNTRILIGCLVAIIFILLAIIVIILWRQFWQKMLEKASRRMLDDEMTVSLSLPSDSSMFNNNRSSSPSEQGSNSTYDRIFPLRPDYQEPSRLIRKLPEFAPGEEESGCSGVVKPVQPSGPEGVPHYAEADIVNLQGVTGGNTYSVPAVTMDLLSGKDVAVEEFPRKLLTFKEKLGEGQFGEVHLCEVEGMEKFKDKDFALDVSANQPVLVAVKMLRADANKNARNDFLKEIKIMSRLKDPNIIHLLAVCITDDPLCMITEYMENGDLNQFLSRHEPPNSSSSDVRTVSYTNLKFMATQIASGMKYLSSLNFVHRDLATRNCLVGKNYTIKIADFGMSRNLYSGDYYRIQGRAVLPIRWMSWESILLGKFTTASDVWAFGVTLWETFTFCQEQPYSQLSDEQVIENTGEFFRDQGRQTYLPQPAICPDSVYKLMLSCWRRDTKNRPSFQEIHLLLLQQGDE
# T3 sequence (P49759 whole entry): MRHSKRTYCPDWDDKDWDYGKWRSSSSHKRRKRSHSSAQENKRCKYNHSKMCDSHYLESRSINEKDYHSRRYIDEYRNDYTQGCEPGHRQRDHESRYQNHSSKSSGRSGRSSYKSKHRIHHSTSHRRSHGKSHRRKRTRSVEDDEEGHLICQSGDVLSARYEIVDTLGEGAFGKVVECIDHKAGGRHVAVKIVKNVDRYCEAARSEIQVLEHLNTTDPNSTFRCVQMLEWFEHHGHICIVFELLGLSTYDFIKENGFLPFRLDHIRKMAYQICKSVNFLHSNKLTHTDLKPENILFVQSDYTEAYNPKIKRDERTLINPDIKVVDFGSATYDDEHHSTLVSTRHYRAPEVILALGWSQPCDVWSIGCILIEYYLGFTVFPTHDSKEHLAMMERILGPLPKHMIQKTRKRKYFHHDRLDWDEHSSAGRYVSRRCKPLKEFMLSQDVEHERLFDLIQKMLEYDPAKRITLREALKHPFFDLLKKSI
# T15 sequence (Q96SB4 whole entry): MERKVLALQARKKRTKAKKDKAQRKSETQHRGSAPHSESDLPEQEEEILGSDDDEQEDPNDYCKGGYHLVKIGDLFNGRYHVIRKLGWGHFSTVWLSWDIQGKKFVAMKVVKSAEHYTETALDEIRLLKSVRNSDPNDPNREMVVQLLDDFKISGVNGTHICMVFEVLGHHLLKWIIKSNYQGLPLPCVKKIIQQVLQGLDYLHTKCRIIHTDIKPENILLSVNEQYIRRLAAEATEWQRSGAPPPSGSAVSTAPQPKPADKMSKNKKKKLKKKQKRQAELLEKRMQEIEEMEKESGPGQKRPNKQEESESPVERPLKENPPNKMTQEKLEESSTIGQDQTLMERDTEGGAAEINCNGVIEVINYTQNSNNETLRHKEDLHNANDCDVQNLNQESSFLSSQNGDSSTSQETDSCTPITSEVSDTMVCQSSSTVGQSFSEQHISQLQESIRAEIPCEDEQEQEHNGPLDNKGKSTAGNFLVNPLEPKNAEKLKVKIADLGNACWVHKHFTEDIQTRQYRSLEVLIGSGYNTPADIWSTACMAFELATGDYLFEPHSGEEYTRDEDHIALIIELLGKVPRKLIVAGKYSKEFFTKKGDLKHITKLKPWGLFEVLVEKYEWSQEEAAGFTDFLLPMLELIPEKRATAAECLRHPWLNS
# T14 sequence (O14965 whole entry): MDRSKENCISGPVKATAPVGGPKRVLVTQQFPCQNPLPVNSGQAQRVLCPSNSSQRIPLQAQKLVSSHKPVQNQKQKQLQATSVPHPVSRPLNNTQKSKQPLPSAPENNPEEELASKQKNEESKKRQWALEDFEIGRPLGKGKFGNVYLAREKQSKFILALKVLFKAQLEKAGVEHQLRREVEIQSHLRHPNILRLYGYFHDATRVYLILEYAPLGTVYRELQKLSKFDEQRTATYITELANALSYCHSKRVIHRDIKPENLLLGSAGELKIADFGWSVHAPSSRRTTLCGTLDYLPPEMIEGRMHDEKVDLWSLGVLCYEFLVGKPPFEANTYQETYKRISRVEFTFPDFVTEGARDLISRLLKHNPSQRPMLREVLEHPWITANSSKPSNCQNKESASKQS
# T11 sequence (O95747 whole entry): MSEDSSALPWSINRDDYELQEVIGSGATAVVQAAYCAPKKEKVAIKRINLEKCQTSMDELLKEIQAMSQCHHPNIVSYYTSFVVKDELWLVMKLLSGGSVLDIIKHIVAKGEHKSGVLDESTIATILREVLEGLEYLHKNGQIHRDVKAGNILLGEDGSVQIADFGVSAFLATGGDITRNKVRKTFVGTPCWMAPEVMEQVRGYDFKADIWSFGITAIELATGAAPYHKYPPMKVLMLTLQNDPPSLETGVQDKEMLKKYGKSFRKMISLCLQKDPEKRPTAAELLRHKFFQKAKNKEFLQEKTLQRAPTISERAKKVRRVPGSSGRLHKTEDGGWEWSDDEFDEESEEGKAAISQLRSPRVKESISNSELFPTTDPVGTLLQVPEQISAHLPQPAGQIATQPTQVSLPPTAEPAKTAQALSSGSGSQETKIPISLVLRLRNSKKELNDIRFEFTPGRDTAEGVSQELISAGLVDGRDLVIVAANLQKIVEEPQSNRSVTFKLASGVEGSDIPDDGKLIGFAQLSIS
# T17 sequence (Q96Q40 whole entry): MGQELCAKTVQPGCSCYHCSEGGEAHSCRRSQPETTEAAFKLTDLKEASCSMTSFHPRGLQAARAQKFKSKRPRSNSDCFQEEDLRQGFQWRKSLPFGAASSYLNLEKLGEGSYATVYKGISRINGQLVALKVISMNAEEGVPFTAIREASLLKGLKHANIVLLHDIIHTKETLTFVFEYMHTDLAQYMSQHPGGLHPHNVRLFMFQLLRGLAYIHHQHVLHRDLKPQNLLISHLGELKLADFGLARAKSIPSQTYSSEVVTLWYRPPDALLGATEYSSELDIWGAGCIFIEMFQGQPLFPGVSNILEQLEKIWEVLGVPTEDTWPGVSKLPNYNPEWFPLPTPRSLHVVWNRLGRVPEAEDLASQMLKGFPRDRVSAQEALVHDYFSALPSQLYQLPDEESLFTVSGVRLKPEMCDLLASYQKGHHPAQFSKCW
# T16 sequence (P51955 whole entry): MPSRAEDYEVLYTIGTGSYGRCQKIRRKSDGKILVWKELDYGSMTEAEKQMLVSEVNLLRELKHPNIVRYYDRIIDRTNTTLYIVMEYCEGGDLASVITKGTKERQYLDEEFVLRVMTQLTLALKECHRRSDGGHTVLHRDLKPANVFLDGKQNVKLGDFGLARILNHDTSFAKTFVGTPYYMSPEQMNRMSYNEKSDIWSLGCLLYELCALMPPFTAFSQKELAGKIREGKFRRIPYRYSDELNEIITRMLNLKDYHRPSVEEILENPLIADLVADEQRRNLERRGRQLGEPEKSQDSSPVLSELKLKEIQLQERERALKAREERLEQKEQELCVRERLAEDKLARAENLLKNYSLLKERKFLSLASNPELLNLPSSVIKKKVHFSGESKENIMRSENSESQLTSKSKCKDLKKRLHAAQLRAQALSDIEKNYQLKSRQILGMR
# T6 sequence (P42681 whole entry): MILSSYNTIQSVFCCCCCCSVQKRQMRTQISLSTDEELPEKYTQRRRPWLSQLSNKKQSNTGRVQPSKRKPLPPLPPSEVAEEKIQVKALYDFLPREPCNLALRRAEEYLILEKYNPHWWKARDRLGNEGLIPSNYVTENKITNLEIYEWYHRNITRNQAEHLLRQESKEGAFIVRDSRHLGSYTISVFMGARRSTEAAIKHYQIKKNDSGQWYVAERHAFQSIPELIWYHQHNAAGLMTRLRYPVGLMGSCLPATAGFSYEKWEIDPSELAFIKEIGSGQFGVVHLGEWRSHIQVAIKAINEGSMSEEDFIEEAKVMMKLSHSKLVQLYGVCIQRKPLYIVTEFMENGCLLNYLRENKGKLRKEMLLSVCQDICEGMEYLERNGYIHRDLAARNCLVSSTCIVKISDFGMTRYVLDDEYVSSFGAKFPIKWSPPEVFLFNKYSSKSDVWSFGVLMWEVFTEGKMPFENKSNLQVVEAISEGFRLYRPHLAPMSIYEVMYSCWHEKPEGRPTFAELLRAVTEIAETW
smiles,measurement,setting,value
CC(C)C(=O)N1CCN(c2ccc(NC(=O)c3cc4ccccc4o3)cc2Cl)CC1 [Compound 21],Percent Control,[1],100%
same,Percent Control,[2],75%
same,Percent Control,[3],98%
same,Percent Control,[4],100%
same,Percent Control,[5],100%
same,Percent Control,[6],76%
same,Percent Control,[7],100%
same,Percent Control,[8],100%
same,Percent Control,[9],100%
same,Percent Control,[10],100%
same,Percent Control,[11],95%
same,Percent Control,[12],100%
same,Percent Control,[13],98%
same,Percent Control,[14],89%
same,Percent Control,[15],96%
same,Percent Control,[16],91%
same,Percent Control,[17],100%
